# Literature values as cited in publication PMC10010643 (Cancer Chemotherapy and Pharmacology, 2023).
# Tests used:
# galectin-3 [1] = test system: galectin-3; set-up: method as in PMID 33214209; conditions: inhaled; cited from earlier work
# galectin-3 [2] = conditions: cited from earlier work
# [3] = set-up: method as in PMID 36154172; conditions: cited from earlier work
smiles,measurement,setting,value
OC[C@H]1O[C@@H](S[C@@H]2O[C@H](CO)[C@H](O)[C@H](n3cc(-c4cccc(F)c4)nn3)[C@H]2O)[C@H](O)[C@@H](n2cc(-c3cccc(F)c3)nn2)[C@H]1O [GB0139],Galectin-3 expression,galectin-3 [1],suppressed galectin-3 expression
same,Plasma biomarkers associated with IPF disease progression,galectin-3 [1],decreased plasma biomarkers associated with IPF disease progression
same,Binding affinity for galectin-3,galectin-3 [2],high binding affinity
same,Elimination if administered systemically,[3],prompt elimination
same,Intestinal absorption,[3],poor intestinal absorption
